In PubChem BioAssay AID1645863 (Buhrlage Lab, Dana-Farber Cancer Institute and Novartis …, 2021):
Activity calls are given as the source filed them. No rule for the calls is given here.

Biological target: Ubiquitin carboxyl-terminal hydrolase 10 (Homo sapiens) (UniProt Q14694)
Assay: ubiquitin-specific protease 10 DUB inhibitors, concentration-effect, biochemical, verification of primary screen actives (AID 1645863);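 also: potency values describe inhibition of USP10 cleavage of a fluorogenic ubiquitin substrate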
Conditions: USP10 deubiquitinase enzymatic assay

Chain of Ubiquitin carboxyl-terminal hydrolase 10 (Homo sapiens) (Q14694 whole entry, looked up): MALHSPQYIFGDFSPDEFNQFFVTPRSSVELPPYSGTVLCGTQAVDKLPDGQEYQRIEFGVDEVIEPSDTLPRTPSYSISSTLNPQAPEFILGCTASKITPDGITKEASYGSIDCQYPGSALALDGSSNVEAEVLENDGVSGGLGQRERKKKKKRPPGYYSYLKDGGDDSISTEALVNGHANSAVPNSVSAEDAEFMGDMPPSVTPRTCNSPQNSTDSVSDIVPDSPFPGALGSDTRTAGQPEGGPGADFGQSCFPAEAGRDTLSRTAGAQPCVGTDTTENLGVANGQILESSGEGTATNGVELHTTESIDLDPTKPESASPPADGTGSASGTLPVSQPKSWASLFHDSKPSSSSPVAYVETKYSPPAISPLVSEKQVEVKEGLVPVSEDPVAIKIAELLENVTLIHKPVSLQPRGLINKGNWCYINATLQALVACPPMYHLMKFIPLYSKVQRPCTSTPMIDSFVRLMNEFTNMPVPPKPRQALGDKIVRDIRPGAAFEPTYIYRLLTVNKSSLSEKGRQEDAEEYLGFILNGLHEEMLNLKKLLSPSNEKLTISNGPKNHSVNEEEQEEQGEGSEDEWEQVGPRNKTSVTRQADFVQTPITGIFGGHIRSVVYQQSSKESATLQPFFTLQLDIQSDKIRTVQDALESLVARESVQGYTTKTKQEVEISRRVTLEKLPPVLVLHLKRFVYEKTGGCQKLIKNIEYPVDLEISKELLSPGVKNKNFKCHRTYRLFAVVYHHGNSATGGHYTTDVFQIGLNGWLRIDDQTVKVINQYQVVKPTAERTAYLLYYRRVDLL

Structure (SMILES)	IC50
CCc1nc(SCC(=O)Nc2ccc(Cl)c(Cl)c2)c2oc3ccccc3c2n1	39.4 µM
O=C(c1cc2occc2c(Nc2ccc(F)cc2)n1)N1CCN(c2ccccc2)CC1	> 40 µM (inactive)
O=C(NCc1ccc2c(c1)OCO2)c1cc2c(s1)-c1ccccc1OC2	> 40 µM (inactive)
Cc1ccc(S(=O)(=O)N2CCC3(CC2)OC(=O)Nc2ccccc23)cc1	> 40 µM (inactive)
O=C(Nc1nc2c(ccc3ccccc32)s1)c1cccc(Br)c1	> 40 µM (inactive)
Cc1ccccc1-c1nnc2sc(COc3ccc(Cl)cc3)nn12	> 40 µM (inactive)
Cc1c(-c2nc(-c3ccccc3Cl)no2)nnn1-c1cccc(F)c1	> 40 µM (inactive)
O=C(COc1ccc(Cl)cc1)Nc1noc(-c2cccs2)n1	> 40 µM (inactive)
O=C(NCCN1CCOCC1)c1cn2cc(Cl)ccc2n1	> 40 µM (inactive)
O=C1CC(c2nc3ccccc3n2CCOc2ccc(Cl)cc2)CN1c1ccccc1 (stereo unspecified)	39.3 µM
O=C(COc1ccc(N2CC(C(=O)NCc3ccc4c(c3)OCO4)CC2=O)cc1)Nc1ccc(Cl)cc1 (stereo unspecified)	11.8 µM
COc1ccc(OCCn2c(C3CC(=O)N(c4cccc(C)c4)C3)nc3ccccc32)cc1 (stereo unspecified)	15.2 µM
O=C(OC1CSc2nc3ccccc3n2C1)c1ccc([N+](=O)[O-])o1 (stereo unspecified)	22.7 µM
COc1cc2cc3c(c(O)c2c(O)c1-c1c(OC)cc2cc4c(c(O)c2c1O)C(=O)OC1CC(C)OC41)C(=O)OC1CC(C)OC31 (stereo unspecified)	9.21 µM
Cc1ccc(C(=O)c2cn(CC(=O)Nc3ccc4c(c3)OCO4)c3ccccc3c2=O)cc1	16.4 µM
N#Cc1cccc(NC(=O)Nc2cccn(Cc3ccc(F)cc3)c2=O)c1	> 40 µM (inactive)
COc1ccc(NC(=O)Cn2c(=O)n(CCCC(=O)NCCc3ccc(OC)c(OC)c3)c(=O)c3ccccc32)cc1Cl	> 40 µM (inactive)
Cc1noc(/C=C/Nc2cc(Cl)cc(Cl)c2)c1[N+](=O)[O-]	> 40 µM (inactive)
COc1ccccc1C(=O)Nc1ccc(-c2nc3ccccc3o2)c(O)c1	> 40 µM (inactive)
Cc1ccc(NCc2cc3c(-c4cccc(F)c4)nn(-c4ccccc4)c3[nH]c2=O)cc1C	> 40 µM (inactive)
CCC(=O)Nc1nc2cc(NC(=O)Nc3cc(C)cc(C)c3)ccc2s1	> 40 µM (inactive)
O=C(Nc1cccc(Cl)c1)c1ncn2c1CNS(=O)(=O)c1ccccc1-2	19.1 µM
COc1ccc(-c2ccc3cc(C(=O)O)ccc3c2)cc1C12CC3CC(CC(C3)C1)C2	5.77 µM

Structure (SMILES)	IC50
Cc1c(OCC(=O)NCc2ccccc2Cl)ccc2c3c(c(=O)oc12)CCC3	> 40 µM (inactive)
O=C(Nc1ccncc1)c1cn(Cc2ccccc2)cc2c(=O)n(-c3ccccc3)nc1-2	> 40 µM (inactive)
Cc1ccc(-n2nc(C)c3c2NC(=O)CC3C(=O)c2cc3ccccc3o2)cc1 (stereo unspecified)	> 40 µM (inactive)
CCc1ccc(S(=O)(=O)c2cn(CC(=O)Nc3ccccc3)c3ccccc3c2=O)cc1	> 40 µM (inactive)
COC(=O)c1ccc(C2c3[nH]c4ccccc4c3C[C@@H]3C(=O)N(c4ccc5c(c4)OCCO5)C(=O)N23)cc1 (stereo partly specified)	> 40 µM (inactive)
O=C(O)c1ccccc1C(=O)Nc1ccc(SC(C(=O)Nc2cccc(Cl)c2)c2ccccc2)cc1 (stereo unspecified)	14.2 µM
COc1cccc(C(=O)Nc2nc(-c3nnn(-c4ccc(C)c(F)c4)c3C)ns2)c1	> 40 µM (inactive)
COc1ccc(NC(=O)c2nnc(C(=O)NCCN3CCCCCC3)s2)cc1	> 40 µM (inactive)
CC(C)=CCC[C@H](C(=O)O)[C@@H]1CC[C@]2(C)C3=C(CC[C@@]12C)[C@@]1(C)CCC(=O)C(C)(C)C1CC3 (stereo partly specified)	23.8 µM
COc1cc(NC(=O)Cc2ccccc2)ccc1NC(=O)c1cc2ccccc2o1	28.1 µM
COc1ccc(NC(=O)Cn2cc(C(=O)c3ccc(Cl)cc3)c(=O)c3cc(F)ccc32)cc1	13.2 µM
COc1ccc(NC(=O)Cn2c(=O)n(CCCCC(=O)NCc3ccco3)c(=O)c3ccccc32)cc1Cl	> 40 µM (inactive)
O=C(Cn1cc(C(=O)c2ccccc2)c(=O)c2cc(F)ccc21)Nc1ccc2c(c1)OCCO2	> 40 µM (inactive)
Cn1c(C(=O)NCc2ccccn2)cc2c(=O)[nH]c3ccccc3c21	> 40 µM (inactive)
O=c1c(O)c(-c2ccc(O)c(O)c2)oc2cc(O)cc(O)c12	1.16 µM
COc1ccccc1C(=O)N1CCC[C@H](Cn2nnc(-c3cccnc3)n2)C1	> 40 µM (inactive)
Cn1cc(C(=O)NCC2COc3ccccc3O2)c(=O)c2cc(S(=O)(=O)N3CCCCC3)ccc21 (stereo unspecified)	> 40 µM (inactive)
COc1cccc(NC(=O)Cn2cc(C(=O)c3ccc(C)cc3)c(=O)c3cc(Cl)ccc32)c1	11.2 µM
CC(C)CC(=O)Nc1cc(F)c2nc(N3CCOCC3)ccc2c1	> 40 µM (inactive)
O=c1c2ccccc2oc2nc(-c3cccs3)n(-c3ccccc3)c(=O)c12	16.6 µM
CCc1cccc(C)c1NC(=O)Cn1nc2ccc(C(=O)NCc3ccccc3)cn2c1=O	29.3 µM
O=C(Cn1c(=O)n(-c2ccccc2)c(=O)c2ccc(C(=O)NCc3ccc4c(c3)OCO4)cc21)NCCC1=CCCCC1	16.2 µM
Cc1cccc(NC(=O)CSc2nnc(-c3n[nH]c4c3CCC4)n2N)c1C	> 40 µM (inactive)

Structure (SMILES)	IC50
Cc1cc(N2CCN(c3ncccn3)CC2)nc2ccc(NC(=O)c3ccncc3)cc12	> 40 µM (inactive)
O=C(NC1CCCC1)c1ccc(Cn2c(=O)c3ccccc3n(Cc3cc(=O)n4ccccc4n3)c2=O)cc1	> 40 µM (inactive)
Cc1ccc(CS(=O)(=O)c2cn(CC(=O)NCCc3ccccc3)c3ccccc23)cc1	> 40 µM (inactive)
FC(F)(F)c1ccc(Nc2nnnc3ccccc23)cc1	16.6 µM
COc1ccccc1Nc1ncc(C(=O)NCCc2ccc(Cl)cc2)c2ccccc12	> 40 µM (inactive)
CCCCCCCCCc1cc(OC(=O)c2c(CCCCCCCCC)cc(O)cc2O[C@@H]2O[C@H](CO)[C@@H](O)[C@H](O)[C@H]2O)cc(O)c1C(=O)O	3.43 µM
Cc1ccc(NC(=O)CSc2nnc(-c3n[nH]c4c3CCC4)n2N)cc1C	26 µM
COc1ccc(-c2onc(C)c2C)cc1S(=O)(=O)NCc1ccc(F)cc1	> 40 µM (inactive)
CCn1cc2c(n1)c(=O)n(Cc1ccccc1)c(=O)n2CC(=O)NCc1ccc(C)cc1	> 40 µM (inactive)
O=S1(=O)CCN(Cc2c(F)cccc2F)c2c(F)nc(N3CCOCC3)c(F)c21	> 40 µM (inactive)
Cc1cccc(-n2ccnc(SCC(=O)Nc3ccc(Cl)cc3F)c2=O)c1	16.1 µM
O=c1[nH]c(C2CCN(S(=O)(=O)c3ccc(S(=O)(=O)NC4CCCCC4)cc3)CC2)nc2c1nnn2Cc1ccc(F)cc1	21.9 µM
COC(=O)c1ccc(Nc2cc(C)nc3cc(C(F)(F)F)ccc23)cc1	30.5 µM
O=C(Cn1c(=O)c2sccc2n(Cc2ccc([N+](=O)[O-])cc2)c1=O)NCCc1ccccc1	> 40 µM (inactive)
O=C(CNC(=O)c1ccc2nc(-n3cccc3)sc2c1)NCc1ccccc1	> 40 µM (inactive)
Cc1cc(NC(=O)CSc2ncc(-c3cccc([N+](=O)[O-])c3)n2-c2cccc(Cl)c2)no1	> 40 µM (inactive)
Cc1ccc(C)c(Cn2cnc3c(nnn3-c3cccc(F)c3)c2=O)c1	> 40 µM (inactive)
COc1ccccc1Nc1ncc(C(=O)NCc2ccc(F)cc2)c2ccccc12	> 40 µM (inactive)
Cc1c(C#N)c2ccccc2n1CC(=O)NCc1ccc2c(c1)OCO2	> 40 µM (inactive)
O=C(Cn1c(=O)n(CC2CCC(C(=O)NCCc3ccccc3)CC2)c(=O)c2ccccc21)NCc1ccco1 (stereo unspecified)	22.7 µM
N#Cc1cccc(NC(=O)COC(=O)c2n[nH]c3ccccc23)c1	19.8 µM
CCc1ccc(-n2c(C)cc(/C=C3\C(=N)N4N=CSC4=NC3=O)c2C)cc1	> 40 µM (inactive)
CC1=C(C)C(N(c2ccccc2)c2ccccc2)N(CCC(C)C)C1=O (stereo unspecified)	> 40 µM (inactive)

Structure (SMILES)	IC50
CC(c1ccccc1)N1CC(O)=C(c2nc3ccccc3s2)C1=N (stereo unspecified)	> 40 µM (inactive)
O=C(CCCn1c(=O)c2cc(Cl)ccc2n(CC(=O)Nc2cccc(F)c2)c1=O)NCc1ccco1	> 40 µM (inactive)
Cc1ccc(CC(=O)Nc2ccc(C)cc2-c2n[nH]c(C3CC3)n2)cc1	> 40 µM (inactive)
O=C(Cn1c(=O)n(-c2ccc(Cl)cc2)c(=O)c2c3c(sc21)CCCC3)NCC1CCCO1 (stereo unspecified)	> 40 µM (inactive)
O=C(CCc1ccc(F)cc1)N1CCOC(CCc2cc(=O)[nH]cn2)C1 (stereo unspecified)	> 40 µM (inactive)
COc1ccc(NC(=O)Cn2cc(C(=O)c3ccc(C)cc3)c(=O)c3ccccc32)cc1	30.1 µM
CCCCCC(=O)C(CCCC)c1oc(=O)c(CCCC)c(O)c1CCCC (stereo unspecified)	31 µM
CCCCOc1ccc(-c2cc3n(c(=N)c2C#N)CCc2cc4c(cc2-3)OCCCO4)cc1OC	> 40 µM (inactive)
Cc1nc2c(c(C)c1CCC(=O)Nc1ccccc1F)c(=O)n(C)c(=O)n2C	> 40 µM (inactive)
O=C(NCc1ccccc1)Nc1cccc2ccccc12	> 40 µM (inactive)
O=C(Cn1cnc2cc([N+](=O)[O-])ccc2c1=O)NCc1ccc2c(c1)OCO2	> 40 µM (inactive)
COc1ccc(-c2cc3nc([C@H](C)NC(=O)CC4CCCC4)nn3cn2)cc1	> 40 µM (inactive)
O=C(Nc1ccc(-n2cccc2)cc1)c1cccc([N+](=O)[O-])c1	> 40 µM (inactive)
COc1ccc(C(=O)Nc2ccccc2C(=O)NC(Cc2ccc(O)cc2)C(=O)NNC(=O)c2ccccc2Cl)cc1 (stereo unspecified)	> 40 µM (inactive)
c1ccc(CNc2ccc(-c3ccccc3)nn2)cc1	> 40 µM (inactive)
O=C(CCSc1nnnn1-c1ccccc1)Nc1cc(C(F)(F)F)ccc1Cl	> 40 µM (inactive)
CCOc1ccc(S(=O)(=O)Nc2ccc[nH]c2=O)cc1	> 40 µM (inactive)
Cc1noc(C)c1COc1cccc(C(=O)Nc2cc(Cl)ccc2-n2cncn2)c1	> 40 µM (inactive)
CC(C)Cc1ccc(-c2cc(-c3ccc(C(F)(F)F)cc3)c(C#N)c(=O)[nH]2)cc1	9.8 µM
O=C(CCCCCn1c(=O)c2sccc2n(CC(=O)c2ccc(Cl)c(Cl)c2)c1=O)NCc1ccc2c(c1)OCO2	10.6 µM
CCCn1c(=O)c2sccc2n2c(CCC(=O)N3CCc4ccccc4C3)nnc12	> 40 µM (inactive)
Cc1ccc(Nc2nc3c(S(=O)(=O)c4ccccc4)nnn3c3ccccc23)c(C)c1	> 40 µM (inactive)
